# Experimental data from patent EP4222493B1, “SCREENING TEST FOR CATSPER MODULATORS” (Westfälische Wilhelms-Universität Münster, priority 2020, dated 2022).
# Target: T1, CatSper channel (Homo sapiens, UniProt Q7RTX7+Q86XQ3+Q8NEC5+Q96P56)
# T1 construct: endogenous in cells; host or cells: Sperm cells in untreated ejaculate from a healthy volunteer
# Assay: CatSper modulation test: sperm motility in a test solution essentially free of free calcium, determined by light microscopy
# Format: cell-based
# Conditions: for motility: after about 10 minutes, normalized (first reading in the Ca2+-containing control = 100%)
# Method: • Fig. 1: Time course of sperm motility in the CatSper modulation test. […] Sperm cells were exposed to a calcium-free buffer (grey curves) containing different concentrations of the exemplified CatSper inhibitor RU1968 at time t = 0 minutes up to t = 90 minutes. A control sample (black, HTF) was kept under Ca^2+-containing conditions. During a subsequent incubation at 37 °C, the motility in the sperm population was determined by light microscopy; the data was normalized (first reading in the Ca^2+-containing control = 100%).
# The Ca^2+-containing solution being used in Figure 1 of the present invention corresponds to the HTF buffer (human tubular fluid) used for years in research with spermatozoa (Strünker et al. 2011, Nature 471, 382-386). The calcium-free solution is also based on this buffer. It is very likely that the test can also be carried out with buffer solutions of a different composition, as long as they are kept in the physiological range and comprise the herein mentioned ranges or values for calcium and magnesium. Table 1: Composition of the Ca2+-containing and the Ca2+-free solutions being used in the method of the present invention.
# For performing a CatSper-Screening-Test, 178 µl of the calcium-free solution and 2 µl of the solvent used to prepare the test compound solution is used to produce the control solution (calcium-free solution without any test compound). A test solution is produced by adding 178 µl of the calcium-free solution and 2 µl of the test compound solution together. Optionally, another 180 µl of the calcium-containing solution (without any test compound) may further be used in another vial (see particular composition above in Tab. 1). The solutions are then stored at 4 °C and heated to 37 °C before use to warm up the solutions.
# A spermatozoa (semen) sample is then obtained from a subject who is a healthy volunteer. A volume of 20 µl of the ejaculate is added to the calcium-free control, calcium-free test and calcium-containing solutions in each micro reaction tube. By low-speed vortex mixing or repeatedly inverting the micro reaction tubes, a homogeneous spermatozoa suspension is generated. Both micro reaction tubes are then incubated at 37 °C for 15 min. After incubation, the mixing step is repeated and the spermatozoa motility is determined for the conditions by counting a total number of 200 sperm cells. The fraction of motile sperm is then compared for the calcium-free control solution with and without any test compound. If a difference in the fraction of motile sperm is determined the test compound is identified as inhibitor / activator or no modulator of the CatSper activity.
"motility (3 µM inhibitor in Ca2+-free buffer, 37 °C, Fig. 2)","motility (6 µM inhibitor in Ca2+-free buffer, 37 °C, Fig. 2)","motility (12 µM inhibitor in Ca2+-free buffer, 37 °C, Fig. 2)",SMILES,"effect on CatSper ion channel activity in the CatSper-Screening-Test (10 µM, calcium-free solution, Fig. 1)","behaviour of sperm cells from healthy volunteers in the CatSper-Screening-Test (30 µM, calcium-free solution, Fig. 1)","sperm cell motility under essentially Ca2+-free conditions (different concentrations, t = 0 minutes up to t = 90 minutes, 37 °C, Fig. 2)"
–,–,–,"CC(=O)[C@H]1CC[C@H]2[C@@H]3CCC4=CC(=O)CC[C@]4(C)[C@H]3CC[C@]12C [Progesterone, progesterone]",activates CatSper ion channel activity,–,–
about 106%,~110%,about 116%,C[C@@H](NCCN(C)C)[C@@H]1CC[C@@H]2[C@H]3CCc4cc(O)ccc4[C@@H]3CC[C@]21C [RU1968],–,behave in the same way as sperm from patients with CatSper dysfunction,modulates the sperm cell motility in a concentration-dependent manner
